Experimental findings from US20130296393A1, “METHOD FOR CONTROLLING CLUBROOT” (ISHIHARA SANGYO KAISHA, LTD., priority 2011, published 2013) are described below.

For the test, the system named is Plasmodiophora brassicae. Briefly: Influence of rainfall on clubroot control effect in cabbage (Example 4 / Comparative Example 4). The arrangement: key to Disease severity: 0–100 index: Σ(plants×disease index 0–4)/(plants×4)×100; key to Disease control value: {1−(treatment severity/control severity)}×100; 100 = full control. Particulars: pot; for Disease control value / Disease severity: 67 days after settled planting. In kind it is in vivo. The protocol:
Disease severity={Σ(number of each index of diseased plants×disease index)/(number of plants surveyed×4)}×100
Disease control value={1−(treatment disease severity/control disease severity)}×100
0: No adhesion of clubroot, 1: clubroot adhesion to lateral root, 2: clubroot adhesion to the entire lateral root or clubroot adhesion to a part of tap root, 3: adhesion of large clubroot to tap root, and 4: clubroot adhesion to the entire tap root.
The test was carried out by the same method as in Example 3 except for preparing an area subjected to a rainfall treatment of 20 mm by means of a rainfall apparatus (a treatment at a rate of 10 mm/hour for 2 hours) the day before treatment, and an area not subjected to the rainfall treatment. Sixty-seven days after the settled planting, the number of each index of clubroot adhesion to the root was investigated. For comparison, the same test was carried out on a control section where a soil drench treatment with the chemical solution for spraying was not applied.
The test was carried out by the same method as in Example 4 except that in place of the soil drench treatment with the chemical solution for spraying, 30 kg/10 a of 0.3% flusulfamide (dust formulation of Nebijin [trade name], manufactured by Mitsui Chemicals Agro, Inc.) was applied to the test soil just before the settled planting and incorporated into the soil by means of a small mixer (interfusion depth: 15 cm).
The disease severity and disease control value of Example 4 and Comparative Example 4 were determined by the same methods as in Example 1 and Comparative Example 1. In addition, the weight of cabbage in the aerial part was measured. Furthermore, the test result was shown by the average value of five plantings.

[1] abbreviates: with rainfall treatment 20 mm, 50 ppm soil drench 250 ml/plant 4 days after settled planting.
Where [2] appears, read: with rainfall treatment 20 mm, 50 ppm soil drench 250 ml/plant 7 days after settled planting.
Where [3] appears, read: with rainfall treatment 20 mm, 50 ppm soil drench 250 ml/plant 14 days after settled planting.
Where [4] appears, read: with rainfall treatment 20 mm, 50 ppm soil drench 250 ml/plant just after settled planting.
Where [5] appears, read: without rainfall treatment, 50 ppm soil drench 250 ml/plant just after settled planting.

For the compound `Cc1ccc(-c2c(Cl)nc(C#N)n2S(=O)(=O)N(C)C)cc1` [cyazofamid, 4-chloro-2-cyano-1-dimethylsulfamoyl-5-(4-methylphenyl)imidazole], the “Weight in the aerial part” value turned out to be 133 g under setting [1]; 129 g under setting [2]; 103 g under setting [3]; 121 g under setting [4]; 129 g under setting [5]. This compound also came in with a Disease control value under setting [1] of 100; a Disease control value under setting [2] of 93; a Disease control value under setting [3] of 29; a Disease control value under setting [4] of 100; a Disease control value under setting [5] of 100. Further, the Disease severity under setting [1] is given as 0; the Disease severity under setting [2] is on record as 5; the Disease severity under setting [3] is recorded as 50; the Disease severity under setting [4] stood at 0; the Disease severity under setting [5] is recorded as 0. Also, the Control effect result (with rainfall treatment, soil drench within 7 days after settled planting) is on record as “a practical control effect was obtained”.
